{"source": "ChEMBL document CHEMBL1201861", "about": "“Genomics of Drug Sensitity in Cancer screening data, Wellcome Trust Sanger Institute”", "assay_in_all_cases": "cells", "key": {"HCC2218": {"tested_on": "HCC2218", "assay_type": "functional, cell-based", "settings": "Homo sapiens", "description": "SANGER: Inhibition of human HCC2218 cell growth in a cell viability assay."}, "IA-LM": {"tested_on": "IA-LM", "assay_type": "functional, cell-based, Homo sapiens", "settings": "Homo sapiens, IA-LM", "description": "SANGER: Inhibition of human IA-LM cell growth in a cell viability assay."}, "ES6": {"tested_on": "ES6", "assay_type": "functional, cell-based, Homo sapiens", "settings": "Homo sapiens, ES6", "description": "SANGER: Inhibition of human ES6 cell growth in a cell viability assay."}, "BHT-101": {"tested_on": "BHT-101", "assay_type": "functional, cell-based, Homo sapiens", "settings": "Homo sapiens, BHT-101", "description": "SANGER: Inhibition of human BHT-101 cell growth in a cell viability assay."}, "SBC-1": {"tested_on": "SBC-1", "assay_type": "functional, cell-based", "settings": "Homo sapiens", "description": "SANGER: Inhibition of human SBC-1 cell growth in a cell viability assay."}, "NY": {"tested_on": "NY", "assay_type": "functional, cell-based, Homo sapiens", "settings": "Homo sapiens, NY", "description": "SANGER: Inhibition of human NY cell growth in a cell viability assay."}, "LAN-6": {"tested_on": "LAN-6", "assay_type": "functional, cell-based, Homo sapiens", "settings": "Homo sapiens, LAN-6", "description": "SANGER: Inhibition of human LAN-6 cell growth in a cell viability assay."}, "MDA-MB-453": {"tested_on": "MDA-MB-453", "assay_type": "functional, cell-based, Homo sapiens", "settings": "Homo sapiens, MDA-MB-453", "description": "SANGER: Inhibition of human MDA-MB-453 cell growth in a cell viability assay."}, "RD": {"tested_on": "RD", "assay_type": "functional, cell-based, Homo sapiens", "settings": "Homo sapiens, RD", "description": "SANGER: Inhibition of human RD cell growth in a cell viability assay."}, "HCC1937": {"tested_on": "HCC1937", "assay_type": "functional, cell-based, Homo sapiens", "settings": "Homo sapiens, HCC1937", "description": "SANGER: Inhibition of human HCC1937 cell growth in a cell viability assay."}, "LS-123": {"tested_on": "LS-123", "assay_type": "functional, cell-based, Homo sapiens", "settings": "Homo sapiens, LS-123", "description": "SANGER: Inhibition of human LS-123 cell growth in a cell viability assay."}, "SNU-449": {"tested_on": "SNU-449", "assay_type": "functional, cell-based, Homo sapiens", "settings": "Homo sapiens, SNU-449", "description": "SANGER: Inhibition of human SNU-449 cell growth in a cell viability assay."}, "SW982": {"tested_on": "SW982", "assay_type": "functional, cell-based", "settings": "Homo sapiens", "description": "SANGER: Inhibition of human SW982 cell growth in a cell viability assay."}, "SN12C": {"tested_on": "SN12C", "assay_type": "functional, cell-based, Homo sapiens", "settings": "Homo sapiens, SN12C", "description": "SANGER: Inhibition of human SN12C cell growth in a cell viability assay."}, "HCC1954": {"tested_on": "HCC1954", "assay_type": "functional, cell-based, Homo sapiens", "settings": "Homo sapiens, HCC1954", "description": "SANGER: Inhibition of human HCC1954 cell growth in a cell viability assay."}, "MFH-ino": {"tested_on": "MFH-ino", "assay_type": "functional, cell-based", "settings": "Homo sapiens", "description": "SANGER: Inhibition of human MFH-ino cell growth in a cell viability assay."}, "KS-1": {"tested_on": "KS-1", "assay_type": "functional, cell-based, Homo sapiens", "settings": "Homo sapiens, KS-1", "description": "SANGER: Inhibition of human KS-1 cell growth in a cell viability assay."}, "ALL-PO": {"tested_on": "ALL-PO", "assay_type": "functional, cell-based", "settings": "Homo sapiens", "description": "SANGER: Inhibition of human ALL-PO cell growth in a cell viability assay."}, "DK-MG": {"tested_on": "DK-MG", "assay_type": "functional, cell-based, Homo sapiens", "settings": "Homo sapiens, DK-MG", "description": "SANGER: Inhibition of human DK-MG cell growth in a cell viability assay."}, "EW-11": {"tested_on": "EW-11", "assay_type": "functional, cell-based, Homo sapiens", "settings": "Homo sapiens, EW-11", "description": "SANGER: Inhibition of human EW-11 cell growth in a cell viability assay."}, "CAMA-1": {"tested_on": "CAMA-1", "assay_type": "functional, cell-based, Homo sapiens", "settings": "Homo sapiens, CAMA-1", "description": "SANGER: Inhibition of human CAMA-1 cell growth in a cell viability assay."}, "Huh-7": {"tested_on": "Huh-7", "assay_type": "functional, cell-based, Homo sapiens", "settings": "Homo sapiens, Huh-7", "description": "SANGER: Inhibition of human HuH-7 cell growth in a cell viability assay."}, "OVCAR-5": {"tested_on": "OVCAR-5", "assay_type": "functional, cell-based, Homo sapiens", "settings": "Homo sapiens, OVCAR-5", "description": "SANGER: Inhibition of human OVCAR-5 cell growth in a cell viability assay."}, "IST-SL1": {"tested_on": "IST-SL1", "assay_type": "functional, cell-based, Homo sapiens", "settings": "Homo sapiens, IST-SL1", "description": "SANGER: Inhibition of human IST-SL1 cell growth in a cell viability assay."}, "A4-Fuk": {"tested_on": "A4-Fuk", "assay_type": "functional, cell-based", "settings": "Homo sapiens", "description": "SANGER: Inhibition of human A4-Fuk cell growth in a cell viability assay."}, "KLE": {"tested_on": "KLE", "assay_type": "functional, cell-based, Homo sapiens", "settings": "Homo sapiens, KLE", "description": "SANGER: Inhibition of human KLE cell growth in a cell viability assay."}, "RPMI-2650": {"tested_on": "RPMI-2650", "assay_type": "functional, cell-based, Homo sapiens", "settings": "Homo sapiens, RPMI-2650", "description": "SANGER: Inhibition of human RPMI-2650 cell growth in a cell viability assay."}, "SK-LMS-1": {"tested_on": "SK-LMS-1", "assay_type": "functional, cell-based, Homo sapiens", "settings": "Homo sapiens, SK-LMS-1", "description": "SANGER: Inhibition of human SK-LMS-1 cell growth in a cell viability assay."}, "SF-268": {"tested_on": "SF-268", "assay_type": "functional, cell-based, Homo sapiens", "settings": "Homo sapiens, SF-268", "description": "SANGER: Inhibition of human SF268 cell growth in a cell viability assay."}, "D283 Med": {"tested_on": "D283 Med", "assay_type": "functional, cell-based, Homo sapiens", "settings": "Homo sapiens, D283 Med", "description": "SANGER: Inhibition of human D-283MED cell growth in a cell viability assay."}, "639-V": {"tested_on": "639-V", "assay_type": "functional, cell-based, Homo sapiens", "settings": "Homo sapiens, 639-V", "description": "SANGER: Inhibition of human 639-V cell growth in a cell viability assay."}, "COLO-800": {"tested_on": "COLO-800", "assay_type": "functional, cell-based, Homo sapiens", "settings": "Homo sapiens, COLO-800", "description": "SANGER: Inhibition of human COLO-800 cell growth in a cell viability assay."}, "CAL-51": {"tested_on": "CAL-51", "assay_type": "functional, cell-based, Homo sapiens", "settings": "Homo sapiens, CAL-51", "description": "SANGER: Inhibition of human CAL-51 cell growth in a cell viability assay."}, "WM-115": {"tested_on": "WM-115", "assay_type": "functional, cell-based, Homo sapiens", "settings": "Homo sapiens, WM-115", "description": "SANGER: Inhibition of human WM-115 cell growth in a cell viability assay."}, "MC-IXC": {"tested_on": "MC-IXC", "assay_type": "functional, cell-based, Homo sapiens", "settings": "Homo sapiens, MC-IXC", "description": "SANGER: Inhibition of human MC-IXC cell growth in a cell viability assay."}, "SAOS-2": {"tested_on": "SAOS-2", "assay_type": "functional, cell-based, Homo sapiens", "settings": "Homo sapiens, SAOS-2", "description": "SANGER: Inhibition of human Saos-2 cell growth in a cell viability assay."}, "5637": {"tested_on": "5637", "assay_type": "functional, cell-based, Homo sapiens", "settings": "Homo sapiens", "description": "SANGER: Inhibition of human 5637 cell growth in a cell viability assay."}, "NCI-H2122": {"tested_on": "NCI-H2122", "assay_type": "functional, cell-based, Homo sapiens", "settings": "Homo sapiens, NCI-H2122", "description": "SANGER: Inhibition of human NCI-H2122 cell growth in a cell viability assay."}, "EW-3": {"tested_on": "EW-3", "assay_type": "functional, cell-based", "settings": "Homo sapiens", "description": "SANGER: Inhibition of human EW-3 cell growth in a cell viability assay."}, "MKN-1": {"tested_on": "MKN-1", "assay_type": "functional, cell-based, Homo sapiens", "settings": "Homo sapiens, MKN-1", "description": "SANGER: Inhibition of human MKN1 cell growth in a cell viability assay."}, "KE-37": {"tested_on": "KE-37", "assay_type": "functional, cell-based", "settings": "Homo sapiens", "description": "SANGER: Inhibition of human KE-37 cell growth in a cell viability assay."}, "GAK": {"tested_on": "GAK", "assay_type": "functional, cell-based, Homo sapiens", "settings": "Homo sapiens, GAK", "description": "SANGER: Inhibition of human GAK cell growth in a cell viability assay."}, "A388": {"tested_on": "A388", "assay_type": "functional, cell-based, Homo sapiens", "settings": "Homo sapiens, A388", "description": "SANGER: Inhibition of human A388 cell growth in a cell viability assay."}, "C3A": {"tested_on": "C3A", "assay_type": "functional, cell-based, Homo sapiens", "settings": "Homo sapiens, C3A", "description": "SANGER: Inhibition of human C3A cell growth in a cell viability assay."}, "AN3-CA": {"tested_on": "AN3-CA", "assay_type": "functional, cell-based", "settings": "Homo sapiens", "description": "SANGER: Inhibition of human AN3-CA cell growth in a cell viability assay."}, "NCI-H2347": {"tested_on": "NCI-H2347", "assay_type": "functional, cell-based, Homo sapiens", "settings": "Homo sapiens, NCI-H2347", "description": "SANGER: Inhibition of human NCI-H2347 cell growth in a cell viability assay."}, "CAL-120": {"tested_on": "CAL-120", "assay_type": "functional, cell-based, Homo sapiens", "settings": "Homo sapiens, CAL-120", "description": "SANGER: Inhibition of human CAL-120 cell growth in a cell viability assay."}, "MEG-01": {"tested_on": "MEG-01", "assay_type": "functional, cell-based", "settings": "Homo sapiens", "description": "SANGER: Inhibition of human MEG-01 cell growth in a cell viability assay."}, "NCI-H1437": {"tested_on": "NCI-H1437", "assay_type": "functional, cell-based, Homo sapiens", "settings": "Homo sapiens, NCI-H1437", "description": "SANGER: Inhibition of human NCI-H1437 cell growth in a cell viability assay."}, "NCI-H1581": {"tested_on": "NCI-H1581", "assay_type": "functional, cell-based, Homo sapiens", "settings": "Homo sapiens, NCI-H1581", "description": "SANGER: Inhibition of human NCI-H1581 cell growth in a cell viability assay."}, "SK-PN-DW": {"tested_on": "SK-PN-DW", "assay_type": "functional, cell-based", "settings": "Homo sapiens", "description": "SANGER: Inhibition of human SK-PN-DW cell growth in a cell viability assay."}, "VA-ES-BJ": {"tested_on": "VA-ES-BJ", "assay_type": "functional, cell-based, Homo sapiens", "settings": "Homo sapiens, VA-ES-BJ", "description": "SANGER: Inhibition of human VA-ES-BJ cell growth in a cell viability assay."}}}
{"molecule": "CC(=O)O[C@@H]1[C@@H](OC(C)=O)[C@@H](O)[C@H](Oc2c(-c3ccc(O)cc3)oc3cc(O)cc(O)c3c2=O)O[C@H]1C", "values": [{"measurement": "IC50", "setting": "HCC2218", "value": 3.84, "unit": "µM"}, {"measurement": "IC50", "setting": "IA-LM", "value": "> 10", "unit": "µM"}, {"measurement": "IC50", "setting": "ES6", "value": "> 10", "unit": "µM"}, {"measurement": "IC50", "setting": "BHT-101", "value": "> 10", "unit": "µM"}, {"measurement": "IC50", "setting": "SBC-1", "value": "> 10", "unit": "µM"}, {"measurement": "IC50", "setting": "NY", "value": "> 10", "unit": "µM"}, {"measurement": "IC50", "setting": "LAN-6", "value": "> 10", "unit": "µM"}, {"measurement": "IC50", "setting": "MDA-MB-453", "value": "> 10", "unit": "µM"}, {"measurement": "IC50", "setting": "RD", "value": "> 10", "unit": "µM"}, {"measurement": "IC50", "setting": "HCC1937", "value": "> 10", "unit": "µM"}, {"measurement": "IC50", "setting": "LS-123", "value": "> 10", "unit": "µM"}, {"measurement": "IC50", "setting": "SNU-449", "value": "> 10", "unit": "µM"}, {"measurement": "IC50", "setting": "SW982", "value": "> 10", "unit": "µM"}, {"measurement": "IC50", "setting": "SN12C", "value": "> 10", "unit": "µM"}, {"measurement": "IC50", "setting": "HCC1954", "value": "> 10", "unit": "µM"}, {"measurement": "IC50", "setting": "MFH-ino", "value": "> 10", "unit": "µM"}, {"measurement": "IC50", "setting": "KS-1", "value": "> 10", "unit": "µM"}, {"measurement": "IC50", "setting": "ALL-PO", "value": "> 10", "unit": "µM"}, {"measurement": "IC50", "setting": "DK-MG", "value": "> 10", "unit": "µM"}, {"measurement": "IC50", "setting": "EW-11", "value": "> 10", "unit": "µM"}, {"measurement": "IC50", "setting": "CAMA-1", "value": "> 10", "unit": "µM"}, {"measurement": "IC50", "setting": "Huh-7", "value": "> 10", "unit": "µM"}, {"measurement": "IC50", "setting": "OVCAR-5", "value": "> 10", "unit": "µM"}, {"measurement": "IC50", "setting": "IST-SL1", "value": "> 10", "unit": "µM"}, {"measurement": "IC50", "setting": "A4-Fuk", "value": "> 10", "unit": "µM"}, {"measurement": "IC50", "setting": "KLE", "value": "> 10", "unit": "µM"}, {"measurement": "IC50", "setting": "RPMI-2650", "value": "> 10", "unit": "µM"}, {"measurement": "IC50", "setting": "SK-LMS-1", "value": "> 10", "unit": "µM"}, {"measurement": "IC50", "setting": "SF-268", "value": "> 10", "unit": "µM"}, {"measurement": "IC50", "setting": "D283 Med", "value": "> 10", "unit": "µM"}, {"measurement": "IC50", "setting": "639-V", "value": "> 10", "unit": "µM"}, {"measurement": "IC50", "setting": "COLO-800", "value": "> 10", "unit": "µM"}, {"measurement": "IC50", "setting": "CAL-51", "value": "> 10", "unit": "µM"}, {"measurement": "IC50", "setting": "WM-115", "value": "> 10", "unit": "µM"}, {"measurement": "IC50", "setting": "MC-IXC", "value": "> 10", "unit": "µM"}, {"measurement": "IC50", "setting": "SAOS-2", "value": "> 10", "unit": "µM"}, {"measurement": "IC50", "setting": "5637", "value": "> 10", "unit": "µM"}, {"measurement": "IC50", "setting": "NCI-H2122", "value": "> 10", "unit": "µM"}, {"measurement": "IC50", "setting": "EW-3", "value": "> 10", "unit": "µM"}, {"measurement": "IC50", "setting": "MKN-1", "value": "> 10", "unit": "µM"}, {"measurement": "IC50", "setting": "KE-37", "value": "> 10", "unit": "µM"}, {"measurement": "IC50", "setting": "GAK", "value": "> 10", "unit": "µM"}, {"measurement": "IC50", "setting": "A388", "value": "> 10", "unit": "µM"}, {"measurement": "IC50", "setting": "C3A", "value": "> 10", "unit": "µM"}, {"measurement": "IC50", "setting": "AN3-CA", "value": "> 10", "unit": "µM"}, {"measurement": "IC50", "setting": "NCI-H2347", "value": "> 10", "unit": "µM"}, {"measurement": "IC50", "setting": "CAL-120", "value": "> 10", "unit": "µM"}, {"measurement": "IC50", "setting": "MEG-01", "value": "> 10", "unit": "µM"}, {"measurement": "IC50", "setting": "NCI-H1437", "value": "> 10", "unit": "µM"}, {"measurement": "IC50", "setting": "NCI-H1581", "value": "> 10", "unit": "µM"}, {"measurement": "IC50", "setting": "SK-PN-DW", "value": "> 10", "unit": "µM"}, {"measurement": "IC50", "setting": "VA-ES-BJ", "value": "> 10", "unit": "µM"}]}
